# Calls of active or inactive are those of the source. The calls are words filed in the database; no cut-off is given here.
# Tests used:
# [1] = system: Human immunodeficiency virus 1; assay: Antiviral activity against HIV-1 HE infected in wild-type human CEM/0 cells assessed as inhibition of virus-induced cytopathic effect incubated for 4 to 5 days by light microscopic analysis; type: functional, organism-based; settings: Human immunodeficiency virus 1, HE, CCRF-CEM
# [2] = Chemical stability of the compound in phosphate buffer assessed as half life at pH 7.3 by HPLC analysis; type: physicochemical
# [3] = target: T1, DNA polymerase subunit gamma-1 (Homo sapiens) (UniProt P54098); assay: Substrate activity at human DNA polymerase gamma measured after 4 hrs by electrophoresis based primer extension assay
# T1 sequence (whole entry): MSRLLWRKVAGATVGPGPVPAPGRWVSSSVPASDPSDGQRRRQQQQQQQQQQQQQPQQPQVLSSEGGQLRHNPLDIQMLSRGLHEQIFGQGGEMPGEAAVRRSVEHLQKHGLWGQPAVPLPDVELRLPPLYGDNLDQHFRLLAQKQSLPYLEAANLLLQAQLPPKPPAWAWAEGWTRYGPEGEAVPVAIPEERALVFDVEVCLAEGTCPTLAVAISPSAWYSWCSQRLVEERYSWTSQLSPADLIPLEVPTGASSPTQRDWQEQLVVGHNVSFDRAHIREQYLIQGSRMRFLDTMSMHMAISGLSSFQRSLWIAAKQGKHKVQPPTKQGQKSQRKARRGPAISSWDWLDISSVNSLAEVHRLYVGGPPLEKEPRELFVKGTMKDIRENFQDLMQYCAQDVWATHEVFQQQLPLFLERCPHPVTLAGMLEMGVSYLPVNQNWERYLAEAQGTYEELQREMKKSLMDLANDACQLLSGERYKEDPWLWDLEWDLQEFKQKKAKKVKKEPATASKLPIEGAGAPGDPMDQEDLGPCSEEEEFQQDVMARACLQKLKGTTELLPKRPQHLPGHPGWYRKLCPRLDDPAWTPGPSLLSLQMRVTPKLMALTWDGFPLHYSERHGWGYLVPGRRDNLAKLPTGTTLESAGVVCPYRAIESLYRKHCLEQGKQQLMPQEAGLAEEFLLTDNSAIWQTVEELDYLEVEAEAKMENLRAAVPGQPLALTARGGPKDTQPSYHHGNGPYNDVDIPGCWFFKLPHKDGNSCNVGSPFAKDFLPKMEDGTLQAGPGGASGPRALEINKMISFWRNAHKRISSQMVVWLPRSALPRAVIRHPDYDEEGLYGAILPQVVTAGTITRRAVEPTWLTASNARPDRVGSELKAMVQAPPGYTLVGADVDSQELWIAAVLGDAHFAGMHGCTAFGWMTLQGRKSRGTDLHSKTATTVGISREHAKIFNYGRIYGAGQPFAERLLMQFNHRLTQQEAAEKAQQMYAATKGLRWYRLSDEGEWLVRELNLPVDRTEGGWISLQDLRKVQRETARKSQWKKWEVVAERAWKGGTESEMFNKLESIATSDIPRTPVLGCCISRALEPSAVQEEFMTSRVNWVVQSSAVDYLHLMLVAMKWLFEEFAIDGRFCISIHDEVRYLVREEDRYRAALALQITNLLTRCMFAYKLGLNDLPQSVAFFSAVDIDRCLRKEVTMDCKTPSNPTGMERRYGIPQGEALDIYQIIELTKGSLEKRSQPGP
# [4] = system: Human immunodeficiency virus 2; assay: Antiviral activity against HIV-2 ROD infected in thymidine kinase-deficient human CEM cells assessed as inhibition of virus-induced cytopathic effect incubated for 4 to 5 days by light microscopic analysis; type: functional, organism-based; settings: Human immunodeficiency virus 2, ROD, CCRF-CEM
# [5] = target: T2, DNA polymerase alpha catalytic subunit (Homo sapiens) (UniProt P09884); assay: Substrate activity at human DNA polymerase alpha measured after 4 hrs by electrophoresis based primer extension assay
# T2 sequence (whole entry): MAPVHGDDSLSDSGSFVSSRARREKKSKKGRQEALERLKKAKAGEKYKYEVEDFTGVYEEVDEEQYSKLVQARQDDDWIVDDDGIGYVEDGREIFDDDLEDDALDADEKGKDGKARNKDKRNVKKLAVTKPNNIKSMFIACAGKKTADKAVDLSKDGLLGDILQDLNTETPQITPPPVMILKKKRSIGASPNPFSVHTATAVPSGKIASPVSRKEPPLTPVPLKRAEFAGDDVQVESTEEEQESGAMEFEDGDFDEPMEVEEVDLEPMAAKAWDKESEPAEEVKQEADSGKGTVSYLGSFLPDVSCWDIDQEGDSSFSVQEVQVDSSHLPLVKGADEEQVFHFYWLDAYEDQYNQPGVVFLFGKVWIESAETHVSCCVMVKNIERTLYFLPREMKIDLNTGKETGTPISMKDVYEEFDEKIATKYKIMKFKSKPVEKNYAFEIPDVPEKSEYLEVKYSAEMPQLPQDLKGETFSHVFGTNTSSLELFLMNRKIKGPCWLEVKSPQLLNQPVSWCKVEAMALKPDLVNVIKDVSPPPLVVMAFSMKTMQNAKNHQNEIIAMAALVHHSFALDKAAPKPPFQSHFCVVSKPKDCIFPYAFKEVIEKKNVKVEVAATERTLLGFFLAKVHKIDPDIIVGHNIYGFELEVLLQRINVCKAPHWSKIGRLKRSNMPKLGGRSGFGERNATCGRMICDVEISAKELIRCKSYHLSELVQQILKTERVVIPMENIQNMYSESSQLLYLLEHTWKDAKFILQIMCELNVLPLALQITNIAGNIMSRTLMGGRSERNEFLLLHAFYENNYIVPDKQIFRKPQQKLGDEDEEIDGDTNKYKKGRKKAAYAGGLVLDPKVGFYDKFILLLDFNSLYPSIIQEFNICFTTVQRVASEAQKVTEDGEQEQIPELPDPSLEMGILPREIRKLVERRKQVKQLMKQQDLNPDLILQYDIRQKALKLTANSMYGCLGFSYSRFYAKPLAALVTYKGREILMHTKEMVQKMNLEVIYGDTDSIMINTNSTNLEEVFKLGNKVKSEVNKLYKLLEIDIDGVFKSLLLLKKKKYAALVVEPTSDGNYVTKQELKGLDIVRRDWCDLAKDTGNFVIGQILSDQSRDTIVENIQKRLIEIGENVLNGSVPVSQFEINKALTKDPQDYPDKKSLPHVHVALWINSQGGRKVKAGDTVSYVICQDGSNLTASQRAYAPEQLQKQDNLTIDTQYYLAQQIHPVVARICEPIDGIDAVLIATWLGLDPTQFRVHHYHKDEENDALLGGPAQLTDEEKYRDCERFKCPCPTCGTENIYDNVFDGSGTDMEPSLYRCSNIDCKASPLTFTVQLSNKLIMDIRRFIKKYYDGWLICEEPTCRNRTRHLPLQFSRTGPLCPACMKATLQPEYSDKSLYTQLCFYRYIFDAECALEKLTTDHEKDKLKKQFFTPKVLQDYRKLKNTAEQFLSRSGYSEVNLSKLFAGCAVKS
# [6] = Retention time of the compound by HPLC analysis; type: physicochemical
# [7] = Selectivity index, ratio of CC50 for human CEM cells to EC50 for HIV-2 ROD infected in thymidine kinase-deficient human CEM cells; type: toxicity; settings: read-out: Ratio CC50/EC50
# [8] = system: Human immunodeficiency virus 2; assay: Potency index, ratio of 3'-deoxy-2',3'-dehydrothymidine EC50 to compound EC50 for antiviral activity against HIV-2 ROD infected in wild-type human CEM/0 cells; type: functional
# [9] = Prodrug conversion in human CEM/0 cell extract assessed as metabolite formation by measuring half life by HPLC analysis; type: ADME; settings: ccrf-cem
# [10] = target: DNA polymerase beta (Homo sapiens) (UniProt P06746); assay: Substrate activity at human DNA polymerase beta measured after 4 hrs by electrophoresis based primer extension assay
# [11] = system: Human immunodeficiency virus 2; assay: Antiviral activity against HIV-2 ROD infected in wild-type human CEM/0 cells assessed as inhibition of virus-induced cytopathic effect incubated for 4 to 5 days by light microscopic analysis; type: functional, organism-based; settings: Human immunodeficiency virus 2, ROD, CCRF-CEM
# [12] = system: Human immunodeficiency virus; assay: Substrate activity at HIV reverse transcriptase measured after 4 hrs by electrophoresis based primer extension assay
# [13] = system: Human immunodeficiency virus 1; assay: Potency index, ratio of 3'-deoxy-2',3'-dehydrothymidine EC50 to compound EC50 for antiviral activity against HIV-1 HE infected in wild-type human CEM/0 cells; type: functional
# [14] = system: Human immunodeficiency virus 2; assay: Potency index, ratio of 3'-deoxy-2',3'-dehydrothymidine EC50 to compound EC50 for antiviral activity against HIV-2 ROD infected in thymidine kinase-deficient human CEM[…] cells; type: functional
# [15] = Cytotoxicity against human CEM cells assessed as reduction in cell viability incubated for 4 to 5 days by light microscopic analysis; type: toxicity, cell-based; settings: CEM cells (CCRF-CEM), time 4-5 day
# [16] = Prodrug conversion in pH 7.3 phosphate buffer assessed as ((2S,5R)-5-(5-methyl-2,4-dioxo-3,4-dihydropyrimidin-1(2H)-yl)-2,5-dihydrofuran-2-yl)methyl tri-hydrogen diphosphate formation by measuring half life in presence of pig liver esterase by HPLC analysis; type: ADME
# [17] = Chemical stability of the compound in phosphate buffer saline assessed as half life at pH 7.3 by HPLC analysis; type: physicochemical; settings: phosphate buffered saline
# [18] = Prodrug conversion in pH 7.3 phosphate buffer assessed as metabolite formation by measuring half life in presence of pig liver esterase by HPLC analysis; type: ADME; settings: isolated protein
SMILES,EC50 [1] [nM],EC50 [4] [nM],Retention_time [6] [min],t1/2 [9] [days],EC50 [11] [nM],half-life [17] [days],half-life [2] [days],Activity [3],Activity [5],selectivity ratio [7],Ratio EC50 [8],Activity [10],Ratio EC50 [13],Ratio EC50 [14],CC50 [15] [nM],Drug metabolism [9],Drug metabolism [16],further results
CCCCCCCCCCCCCCCCCCP(=O)(OCCCCCCCCCCCC)OP(=O)(O)OP(=O)(O)OC[C@@H]1C=C[C@H](n2cc(C)c(=O)[nH]c2=O)O1.N.N (some centres undefined),130,350,18.9,–,210,–,34.6,inactive,inactive,143,4,inactive,4,10000,50000,Metabolite_Notdetected,Metabolite_Notdetected,–
CCCCC(=O)Oc1ccc(COP(=O)(OC)OP(=O)(O)OC[C@@H]2C=C[C@H](n3cc(C)c(=O)[nH]c3=O)O2)cc1.N (some centres undefined),430,8950,11.3,–,410,3.5,–,–,–,> 11,–,–,–,–,> 100000,Metabolite_Notdetected,–,Drug metabolism [18]: Metabolite_Notdetected
CCCCCCCCCCCCCCCCCCP(=O)(OCC(CC)CCCC)OP(=O)(O)OP(=O)(O)OC[C@@H]1C=C[C@H](n2cc(C)c(=O)[nH]c2=O)O1.N.N (some centres undefined),90,240,17.1,–,140,–,> 41.7,inactive,inactive,175,4,inactive,4,10000,42000,Metabolite_Notdetected,Metabolite_Notdetected,–
CCCCCCCCCCCCOP(=O)(OCc1ccc(OC(=O)CCCC)cc1)OP(=O)(O)OC[C@@H]1C=C[C@H](n2cc(C)c(=O)[nH]c2=O)O1.N (some centres undefined),390,1390,16.6,0.0458,360,11.9,–,–,–,> 72,–,–,–,–,> 100000,–,–,t1/2 [18]: < 0.00042 days

# Molecules with a lower EC50 [1], results first:
EC50 [1] [nM],EC50 [4] [nM],Retention_time [6] [min],t1/2 [9] [days],EC50 [11] [nM],half-life [17] [days],SMILES,half-life [2] [days],Activity [3],Activity [5],selectivity ratio [7],Ratio EC50 [8],Activity [10],Ratio EC50 [13],Ratio EC50 [14],CC50 [15] [nM],Drug metabolism [9],Drug metabolism [16],further results
77,15,15.6,> 0.625,25,–,CCCCCCCCCCCCCCCCCCOP(=O)(OC)OP(=O)(O)OP(=O)(O)OC[C@@H]1C=C[C@H](n2cc(C)c(=O)[nH]c2=O)O1.N.N (some centres undefined),32.9,inactive,inactive,2270,4,inactive,4,10000,34000,–,–,Activity [12]: Active; t1/2 [16]: > 6.25 days
75,5,17.3,–,36,–,CCCCCCCCCCCCCCCCCCOP(=O)(OCC(CC)CCCC)OP(=O)(O)OP(=O)(O)OC[C@@H]1C=C[C@H](n2cc(C)c(=O)[nH]c2=O)O1.N.N (some centres undefined),> 83.3,inactive,inactive,6800,4,inactive,4,10000,34000,Metabolite_Notdetected,Metabolite_Notdetected,Activity [12]: Active
59,16,20.3,> 0.29,36,16.9,CCCCCCCCCCCCCCCCCCOP(=O)(OCc1ccc(OC(=O)CCCC)cc1)OP(=O)(O)OC[C@@H]1C=C[C@H](n2cc(C)c(=O)[nH]c2=O)O1.N (some centres undefined),–,–,–,3170,–,–,–,–,50600,–,–,t1/2 [18]: 0.0075 days
